This is an account of results in US6921775B2, “Methods for modulating brain damage” (Children's Medical Center Corporation, priority 2001, dated 2005).

SMILES strings stand for the structures.

Assay [1] has as its system AMPA receptors in cerebral white matter. The assay can be described thus: Intracerebral AMPA injection white matter injury. It counts as in vivo. Particulars: P7 rats, 5 nmol AMPA plus 5 nmol MK-801, systemic NBQX post-treatment, t test p<0.005. Here is the method:
The methods used in this example are described in Follett et al. (2000) J. Neurosci. 20:9235-9241, incorporated by reference herein.
NBQX attenuation of the selective white matter injury after hypoxia/ischemia implicated GluR-mediated toxicity as an important mechanism of injury in immature OLs. To confirm a relationship between the activation of AMPA receptors in cerebral white matter and the vulnerability to injury, AMPA was injected directly into immature white matter. […] Minimal to no injury was present in vehicle-injected controls (M K801 alone; n=7) at the same age (t test, p<0.001).
To determine whether AMPA toxicity was age dependent, lesion size after intracerebral AMPA injections at P4, P7, and P11 was compared.

A further assay has as its system OL precursor cells. Nature of the assay: Cell lineage progression (stage-specific markers A2B5, O4, O1, MBP) in OL precursor cultures. It counts as cell-based, rat. As to conditions: topiramate 30 μM, NBQX 100 μM; 0, 2, 6 and 10 days of maturation. Here is the method: Primary oligodendrocyte precursor cells were isolated from mixed glial cultures of the forebrains of newborn Sprague-Dawley rats using a selective detachment procedure as described in detail elsewhere (McCarthy and de Vellis, 1980; Back et al., 1998), and further purified by differential adhesion (Back et al., 1998). Precursor cells were maintained in a chemically-defined medium (CDM) supplemented with recombinant human platelet derived growth factor-AA (PDGF, 10 ng/ml) and basic fibroblast growth factor (bFGF, 10 ng/ml). The CDM was Dulbecco Modified Eagle's Medium (DMEM) containing D-glucose (25 mM), L-glutamine (4 mM), sodium pyruvate (1 mM), human apo-transferrin (50 μg/ml), bovine pancreatic insulin (5 μg/ml), sodium selenium (30 nM), hydrocortisone (10 nM), D-biotin (10 nM), and bovine serum albumin (BSA, 1 mg/ml). All chemicals were from Sigma. […] Cell lineage progression was monitored by the sequential emergence of stage-specific immunochemical markers: A2B5, O4, O1, and MBP, as described previously (Back et al., 1998). […] The effect of these protocols on maturation was also assessed. Differentiation of the cultures in the absence or presence of topiramate (30 μM) or NBQX (100 μM) was monitored by cell morphology and the sequential emergence of a panel of OL stage-specific markers (A2B5, O4, O1, and MBP), following 0, 2, 6, and 10 days of maturation.

As for `NS(=O)(=O)c1cccc2c1c([N+](=O)[O-])cc1nc(O)c(O)nc12` [NBQX, 2,3-Dioxo-6-nitro-1,2,3,4-tetrahydrobenzo[f]quinoxaline-7-sulphonamide], the “white matter injury (lesion size) after intracerebral AMPA” value in assay [1] is recorded as “significantly attenuated white matter injury”. For the same molecule, the “progression along the OL lineage (morphology, A2B5, O4, O1, MBP)” value in the assay on OL precursor cells is given as “indistinguishable from the progression of the control cultures”.

In the case of `CC1(C)O[C@@H]2[C@@H](CO[C@@]3(COS(N)(=O)=O)OC(C)(C)O[C@@H]23)O1` [topiramate], in the assay on OL precursor cells, the “progression along the OL lineage (morphology, A2B5, O4, O1, MBP)” value is on record as “indistinguishable from the progression of the control cultures”.
